Source: PMC8630693 (2021)

Legend:
[1] = test system: BCL-2 RT template (RNA, G4) UAAUACGACUCACUAUAGGGCAUGCCAAGGGGGAAACACCAGAAUCAAGUGUUCCGCGUGAUUGAAGACACCCCCUCGUCCAAGAAUGCAAAGCACAUCCAGGGGGCCGUGGGGUGGGAGCUGGGGAUAAAAUAGCUGGAUUAUAACUCCUCUUCUUUCUCUCGAGAGGUGCCGUUGGCCCCCGUUGCUUUUCCUCUGGGAAGGAUG; assay: reverse transcriptase stop assay, qPCR; conditions: MgCl2 (concentration not stated), 10 µM compound, 100 nM template, 37°C
[2] = test system: NRAS RNA G-quadruplex (SPR) (RNA, G4) UGUGGGAGGGGCGGGUCUGGG; assay: SPR; conditions: 100 mM KCl; 10 mM HEPES pH 7.4, 25°C; highest OMT 200 µM
[3] = test system: RNA G-quadruplex (VEGF), unlabelled (RNA, G4) GGAGGAGGGGGAGGAGG; assay: ESI-MS; conditions: 100 mM trimethylammonium acetate; 50% methanol; 10 µM RNA, 30 µM OMT
[4] = test system: mut 2 (RNA, G4) UGAGGAGGGUGAGGAGG; assay: SPR; conditions: 100 mM KCl; 10 mM HEPES pH 7.4, 25°C; printed kd/ka gives 1.01e-2
[5] = test system: DNA double strand (DNA, duplex) GCGCGCGCGCGCGCGCGCGCGCGC; assay: UV melting; conditions: 100 mM KCl/NaCl (so in the source); 10 mM Tris pH 7.4
[6] = test system: mut 3 (RNA, G4) GGAGGAGGGUGAGUAGG; assay: SPR; conditions: 100 mM KCl; 10 mM HEPES pH 7.4, 25°C; highest OMT 200 µM
[7] = test system: RNA G-quadruplex (VEGF), unlabelled (RNA, G4) GGAGGAGGGGGAGGAGG; assay: CD melting; conditions: 100 mM KCl/NaCl (so in the source); 10 mM Tris pH 7.4; 3:1 OMT/G-quadruplex; 10 µM RNA; Tm 72.7 to 76.3
[8] = test system: mut 1 (RNA, G4) GGAUGAGUGGGAGGAGG; assay: SPR; conditions: 100 mM KCl; 10 mM HEPES pH 7.4, 25°C; printed kd/ka gives 3.9e-3
[9] = test system: BCL-2 RNA G-quadruplex (SPR) (RNA, G4) GGGGGCCGUGGGGUGGGAGCUGGGG; assay: SPR; conditions: 100 mM KCl; 10 mM HEPES pH 7.4, 25°C; highest OMT 200 µM
[10] = test system: mut 4 (RNA, G4) UGAGGAGGGGGAGGAUG; assay: SPR; conditions: 100 mM KCl; 10 mM HEPES pH 7.4, 25°C; highest OMT 200 µM

ΔCt ([1]; not a binding constant)	binding [2]	binding [3]	KD [4]	binding [5]	binding [6]	ΔTm [7]	KD [8]	binding [9]	binding [1]	binding [10]	SMILES
> 2											C[n+]1ccc(-c2c3nc(c(-c4cc[n+](C)cc4)c4ccc([nH]4)c(-c4cc[n+](C)cc4)c4nc(c(-c5cc[n+](C)cc5)c5ccc2[nH]5)C=C4)C=C3)cc1
	no	yes	101 µM	no	no	3.6 °C	39 µM	no	no	no	O=C1CCC[C@@H]2[C@H]3CCC[N+]4([O-])CCC[C@@H](CN12)[C@@H]34 (some centres unmarked)
